According to ChEMBL document CHEMBL6074671, “Discovery of Pyridine-2-Carboxamides Derivatives as Potent and Selective HPK1 Inhibitors for the Treatment of Cancer” (J Med Chem, 2024):
In brackets after ≈: the same amount, converted by molar mass.

Tests used:
[1] = biological target: T1, Mitogen-activated protein kinase kinase kinase kinase 1 (Homo sapiens, UniProt Q92918); test: Inhibition of human recombinant wild type N-terminal HPK1 (1 to 346 residues) infected in insect Sf21 cells using fluorescein-PKC as substrate preincubated for 10 mins followed by substrate addition and measured after 90 mins by microplate reader based analysis; type: single protein
T1 sequence (Q92918 whole entry, the tested form may be a part): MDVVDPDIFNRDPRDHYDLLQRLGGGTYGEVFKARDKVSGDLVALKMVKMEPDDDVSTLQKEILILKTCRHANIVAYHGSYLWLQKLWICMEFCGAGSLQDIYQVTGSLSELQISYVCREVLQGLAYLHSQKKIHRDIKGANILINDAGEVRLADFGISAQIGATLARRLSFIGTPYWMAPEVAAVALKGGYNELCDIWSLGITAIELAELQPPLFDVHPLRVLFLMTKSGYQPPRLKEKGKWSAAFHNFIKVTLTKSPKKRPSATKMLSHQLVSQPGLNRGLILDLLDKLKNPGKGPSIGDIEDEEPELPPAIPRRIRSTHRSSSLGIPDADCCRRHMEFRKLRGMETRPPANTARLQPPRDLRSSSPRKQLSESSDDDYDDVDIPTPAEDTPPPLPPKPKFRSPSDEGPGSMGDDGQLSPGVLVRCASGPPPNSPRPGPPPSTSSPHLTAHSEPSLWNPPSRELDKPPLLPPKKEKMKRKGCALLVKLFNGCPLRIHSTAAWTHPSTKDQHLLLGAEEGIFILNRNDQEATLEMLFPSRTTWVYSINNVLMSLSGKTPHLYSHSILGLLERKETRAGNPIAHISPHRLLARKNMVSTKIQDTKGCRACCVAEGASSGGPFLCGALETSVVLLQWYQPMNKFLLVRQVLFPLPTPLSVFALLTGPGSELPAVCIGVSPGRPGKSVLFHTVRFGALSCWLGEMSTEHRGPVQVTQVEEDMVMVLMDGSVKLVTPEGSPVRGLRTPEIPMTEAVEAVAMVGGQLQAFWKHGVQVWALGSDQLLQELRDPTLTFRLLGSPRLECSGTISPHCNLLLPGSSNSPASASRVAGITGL

[2] = biological target: T2, Mitogen-activated protein kinase kinase kinase kinase 3 (Homo sapiens, UniProt Q8IVH8); test: Inhibition of GLK (unknown origin)
T2 sequence (Q8IVH8 whole entry): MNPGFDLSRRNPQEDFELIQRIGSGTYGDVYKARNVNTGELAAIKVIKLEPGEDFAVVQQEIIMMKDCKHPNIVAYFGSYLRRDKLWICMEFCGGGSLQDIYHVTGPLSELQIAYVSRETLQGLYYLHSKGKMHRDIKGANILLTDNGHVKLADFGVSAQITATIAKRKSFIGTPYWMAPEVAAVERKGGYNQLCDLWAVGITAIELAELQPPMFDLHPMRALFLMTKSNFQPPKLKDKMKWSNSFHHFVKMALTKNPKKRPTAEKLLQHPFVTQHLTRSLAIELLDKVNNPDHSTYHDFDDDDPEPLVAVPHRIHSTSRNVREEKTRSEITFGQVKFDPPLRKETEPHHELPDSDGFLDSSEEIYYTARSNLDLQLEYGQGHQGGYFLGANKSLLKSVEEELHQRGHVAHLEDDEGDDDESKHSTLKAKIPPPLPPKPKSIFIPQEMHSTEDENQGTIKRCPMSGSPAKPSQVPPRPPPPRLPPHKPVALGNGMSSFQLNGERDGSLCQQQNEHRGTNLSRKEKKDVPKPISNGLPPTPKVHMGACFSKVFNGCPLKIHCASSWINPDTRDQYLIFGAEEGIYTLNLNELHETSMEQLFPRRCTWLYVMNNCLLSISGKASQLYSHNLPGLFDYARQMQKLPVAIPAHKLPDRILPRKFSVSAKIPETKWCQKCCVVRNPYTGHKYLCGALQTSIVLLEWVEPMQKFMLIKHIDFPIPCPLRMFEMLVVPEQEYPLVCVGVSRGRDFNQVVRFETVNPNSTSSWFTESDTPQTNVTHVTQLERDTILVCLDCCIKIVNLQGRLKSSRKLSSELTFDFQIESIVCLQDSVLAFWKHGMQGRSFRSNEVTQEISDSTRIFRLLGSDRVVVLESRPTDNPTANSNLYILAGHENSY

[3] = biological target: T1, Mitogen-activated protein kinase kinase kinase kinase 1; test: Inhibition of HPK1 in human PBMC cells assessed as IL-2 level pretreated for 4 hrs followed by anti-CD3/CD28 stimulation for 20 mins by HTRF method; type: cell-based
[4] = Half life in Sprague-Dawley rat at 10 mg/kg, po; type: ADME, organism-based; details: in vivo
[5] = Dose normalized AUC (0 to 24 hrs) in Balb/c mouse at 10 mg/kg, po; type: ADME, organism-based; details: in vivo
[6] = Half life in Balb/c mouse at 10 mg/kg, po; type: ADME, organism-based; details: in vivo
[7] = biological target: Mitogen-activated protein kinase kinase kinase kinase 2 (Homo sapiens, UniProt Q12851); test: Inhibition of human recombinant full length GST tagged N-terminal MAP4K2 (1 to 820 end residues) expressed in insect Sf21 cells
[8] = biological target: Tyrosine-protein kinase Lck (Homo sapiens, UniProt P06239); test: Inhibition of LCK (unknown origin)
Tyrosine-protein kinase Lck, sequence (P06239 whole entry): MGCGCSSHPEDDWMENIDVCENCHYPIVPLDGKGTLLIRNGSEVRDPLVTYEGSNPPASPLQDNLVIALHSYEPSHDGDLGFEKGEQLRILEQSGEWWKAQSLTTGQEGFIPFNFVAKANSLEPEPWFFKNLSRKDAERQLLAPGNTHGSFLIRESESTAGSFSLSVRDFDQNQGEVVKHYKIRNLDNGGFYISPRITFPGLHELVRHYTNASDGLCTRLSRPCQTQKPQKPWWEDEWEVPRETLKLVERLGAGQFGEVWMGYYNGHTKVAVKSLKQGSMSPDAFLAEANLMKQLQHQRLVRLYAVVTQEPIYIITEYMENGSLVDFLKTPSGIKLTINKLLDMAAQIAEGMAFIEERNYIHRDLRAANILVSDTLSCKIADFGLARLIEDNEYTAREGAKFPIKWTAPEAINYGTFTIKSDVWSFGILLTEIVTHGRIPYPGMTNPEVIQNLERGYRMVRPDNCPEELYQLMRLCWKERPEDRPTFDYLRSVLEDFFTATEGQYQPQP

[9] = biological target: Serine/threonine-protein kinase 4 (Homo sapiens, UniProt Q13043); test: Inhibition of MST1 (unknown origin)
Serine/threonine-protein kinase 4, sequence (Q13043 whole entry): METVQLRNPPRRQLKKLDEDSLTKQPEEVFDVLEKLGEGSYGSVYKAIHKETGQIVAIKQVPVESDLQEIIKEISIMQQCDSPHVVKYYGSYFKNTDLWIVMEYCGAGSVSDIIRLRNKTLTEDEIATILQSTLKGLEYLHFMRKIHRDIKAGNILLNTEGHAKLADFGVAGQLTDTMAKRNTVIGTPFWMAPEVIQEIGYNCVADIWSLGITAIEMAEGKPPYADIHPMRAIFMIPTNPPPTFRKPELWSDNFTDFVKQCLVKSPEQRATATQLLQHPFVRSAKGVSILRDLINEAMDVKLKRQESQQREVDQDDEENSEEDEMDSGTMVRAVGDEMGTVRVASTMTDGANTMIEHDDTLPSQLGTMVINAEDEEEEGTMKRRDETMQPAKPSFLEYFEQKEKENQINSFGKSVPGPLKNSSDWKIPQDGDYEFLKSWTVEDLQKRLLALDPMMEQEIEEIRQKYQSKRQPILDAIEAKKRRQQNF

[10] = biological target: Serine/threonine-protein kinase 3 (Homo sapiens, UniProt Q13188); test: Inhibition of MST2 (unknown origin)
Serine/threonine-protein kinase 3, sequence (Q13188 whole entry): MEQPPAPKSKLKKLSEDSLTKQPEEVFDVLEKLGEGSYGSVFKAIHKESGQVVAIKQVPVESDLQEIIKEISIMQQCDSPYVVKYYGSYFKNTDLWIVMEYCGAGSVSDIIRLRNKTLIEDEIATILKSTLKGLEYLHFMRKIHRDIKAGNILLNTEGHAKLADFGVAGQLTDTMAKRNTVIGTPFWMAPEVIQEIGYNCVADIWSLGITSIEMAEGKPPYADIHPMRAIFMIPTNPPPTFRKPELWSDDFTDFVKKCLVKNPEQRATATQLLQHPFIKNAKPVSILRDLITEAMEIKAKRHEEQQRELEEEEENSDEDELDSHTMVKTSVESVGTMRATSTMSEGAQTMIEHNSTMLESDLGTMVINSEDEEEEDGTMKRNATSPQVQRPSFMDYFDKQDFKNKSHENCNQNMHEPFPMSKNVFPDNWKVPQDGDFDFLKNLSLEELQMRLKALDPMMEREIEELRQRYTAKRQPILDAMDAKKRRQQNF

[11] = biological target: Tyrosine-protein kinase JAK2 (Homo sapiens, UniProt O60674); test: Inhibition of JAK2 (unknown origin)
[12] = biological target: Serine/threonine-protein kinase PAK 1 (Homo sapiens, UniProt Q13153); test: Inhibition of PAK1 (unknown origin)
Serine/threonine-protein kinase PAK 1, sequence (Q13153 whole entry): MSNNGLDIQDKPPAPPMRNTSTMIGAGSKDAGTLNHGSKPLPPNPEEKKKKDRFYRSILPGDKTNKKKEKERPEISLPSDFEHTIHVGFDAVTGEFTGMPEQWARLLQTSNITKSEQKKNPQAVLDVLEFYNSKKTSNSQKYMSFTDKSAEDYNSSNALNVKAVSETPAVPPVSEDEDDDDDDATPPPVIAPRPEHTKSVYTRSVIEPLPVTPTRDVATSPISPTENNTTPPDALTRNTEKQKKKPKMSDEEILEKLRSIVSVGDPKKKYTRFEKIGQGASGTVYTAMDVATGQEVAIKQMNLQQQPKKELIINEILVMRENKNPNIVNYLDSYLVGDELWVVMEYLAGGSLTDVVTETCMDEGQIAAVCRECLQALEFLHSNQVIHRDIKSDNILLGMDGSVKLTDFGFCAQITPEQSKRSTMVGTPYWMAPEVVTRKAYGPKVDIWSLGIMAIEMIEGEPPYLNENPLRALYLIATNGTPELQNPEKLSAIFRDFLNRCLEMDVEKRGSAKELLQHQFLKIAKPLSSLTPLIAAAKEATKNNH

[13] = biological target: Mitogen-activated protein kinase kinase kinase 7 (Homo sapiens, UniProt O43318); test: Inhibition of TAK1 (unknown origin)
Mitogen-activated protein kinase kinase kinase 7, sequence (O43318 whole entry): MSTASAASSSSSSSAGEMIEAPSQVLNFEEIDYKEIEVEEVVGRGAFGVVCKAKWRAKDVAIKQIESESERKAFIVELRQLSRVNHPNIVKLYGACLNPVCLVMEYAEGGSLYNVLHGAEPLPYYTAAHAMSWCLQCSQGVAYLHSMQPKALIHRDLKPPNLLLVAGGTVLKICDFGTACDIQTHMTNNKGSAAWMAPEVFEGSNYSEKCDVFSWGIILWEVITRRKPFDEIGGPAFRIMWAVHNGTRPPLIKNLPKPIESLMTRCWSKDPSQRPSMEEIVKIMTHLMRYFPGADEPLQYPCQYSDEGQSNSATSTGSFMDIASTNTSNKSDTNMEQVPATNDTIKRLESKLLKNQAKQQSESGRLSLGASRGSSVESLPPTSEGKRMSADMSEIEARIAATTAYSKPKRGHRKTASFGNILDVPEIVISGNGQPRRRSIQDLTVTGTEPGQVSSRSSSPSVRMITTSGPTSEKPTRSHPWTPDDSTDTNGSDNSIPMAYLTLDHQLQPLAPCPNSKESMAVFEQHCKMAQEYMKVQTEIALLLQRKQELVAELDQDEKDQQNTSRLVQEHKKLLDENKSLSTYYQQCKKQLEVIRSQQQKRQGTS

[14] = Toxicity in Balb/c mouse assessed as effect on body weight loss at 1.5 to 12 mg/kg, po BID measured after 15 days; type: organism-based; details: in vivo, 360 h, dose 1.5-12 mg/kg, time 15 day
MC-38 [15] = test: Antitumor activity against mouse MC38 cells implanted in C57BL/6 mouse model assessed as tumor growth inhibition at 3 mg/kg, po BID measured after 12 days relative to control; type: functional; details: MC-38, 288 h, time 12 day, read-out: TGI
MC-38 [16] = test: Synergistic antitumor activity against mouse MC38 cells implanted in C57BL/6 mouse model assessed as CDI value at low dose, po BID measured after 12 days in presence of anti-PD-1; type: functional; details: time 12 day
MC-38 [17] = test: Synergistic antitumor activity against mouse MC38 cells implanted in C57BL/6 mouse model assessed as CDI value at high dose, po BID measured after 12 days in presence of anti-PD-1; type: functional; details: time 12 day
[18] = Toxicity in C57BL/6 mouse implanted with mouse MC38 cells assessed as effect on body weight loss at low dose, po BID measured after 12 days in presence of anti-PD-1; type: organism-based; details: in vivo, 288 h, time 12 day
[19] = Toxicity in C57BL/6 mouse implanted with mouse MC38 cells assessed as effect on body weight loss at high dose, po BID measured after 12 days in presence of anti-PD-1; type: organism-based; details: in vivo, 288 h, time 12 day
[20] = Toxicity in C57BL/6 mouse implanted with mouse MC38 cells assessed as increase in survival at high dose, po BID measured after 12 days in presence of anti-PD-1; type: organism-based; details: in vivo, 288 h, time 12 day
[21] = Solubility in compound in FessIF at pH 5.0 incubated for 24 hrs by HPLC-UV analysis; type: physicochemical
[22] = Plasma protein binding in dog assessed as unbound fraction at 2 uM incubated for 4 hrs by LC-MS/MS analysis; type: ADME, cell-free, Canis lupus familiaris
[23] = Plasma protein binding in cynomolgous monkey assessed as unbound fraction at 2 uM incubated for 4 hrs by LC-MS/MS analysis; type: ADME, cell-free, Macaca fascicularis; details: cynomolgus monkey
Cytochrome P450 2D6 = Cytochrome P450 2D6 (Homo sapiens, UniProt P10635); test: Inhibition of CYP2D6 in human liver microsomes using O-demethylation as substrate incubated for 10 mins in presence of NADPH by LC-MS/MS analysis; type: ADME, Microsome
[24] = biological target: Voltage-gated inwardly rectifying potassium channel KCNH2 (Homo sapiens, UniProt Q12809); test: Inhibition of human ERG expressed in CHO cells; type: toxicity, cell-based
Voltage-gated inwardly rectifying potassium channel KCNH2, sequence (Q12809 whole entry): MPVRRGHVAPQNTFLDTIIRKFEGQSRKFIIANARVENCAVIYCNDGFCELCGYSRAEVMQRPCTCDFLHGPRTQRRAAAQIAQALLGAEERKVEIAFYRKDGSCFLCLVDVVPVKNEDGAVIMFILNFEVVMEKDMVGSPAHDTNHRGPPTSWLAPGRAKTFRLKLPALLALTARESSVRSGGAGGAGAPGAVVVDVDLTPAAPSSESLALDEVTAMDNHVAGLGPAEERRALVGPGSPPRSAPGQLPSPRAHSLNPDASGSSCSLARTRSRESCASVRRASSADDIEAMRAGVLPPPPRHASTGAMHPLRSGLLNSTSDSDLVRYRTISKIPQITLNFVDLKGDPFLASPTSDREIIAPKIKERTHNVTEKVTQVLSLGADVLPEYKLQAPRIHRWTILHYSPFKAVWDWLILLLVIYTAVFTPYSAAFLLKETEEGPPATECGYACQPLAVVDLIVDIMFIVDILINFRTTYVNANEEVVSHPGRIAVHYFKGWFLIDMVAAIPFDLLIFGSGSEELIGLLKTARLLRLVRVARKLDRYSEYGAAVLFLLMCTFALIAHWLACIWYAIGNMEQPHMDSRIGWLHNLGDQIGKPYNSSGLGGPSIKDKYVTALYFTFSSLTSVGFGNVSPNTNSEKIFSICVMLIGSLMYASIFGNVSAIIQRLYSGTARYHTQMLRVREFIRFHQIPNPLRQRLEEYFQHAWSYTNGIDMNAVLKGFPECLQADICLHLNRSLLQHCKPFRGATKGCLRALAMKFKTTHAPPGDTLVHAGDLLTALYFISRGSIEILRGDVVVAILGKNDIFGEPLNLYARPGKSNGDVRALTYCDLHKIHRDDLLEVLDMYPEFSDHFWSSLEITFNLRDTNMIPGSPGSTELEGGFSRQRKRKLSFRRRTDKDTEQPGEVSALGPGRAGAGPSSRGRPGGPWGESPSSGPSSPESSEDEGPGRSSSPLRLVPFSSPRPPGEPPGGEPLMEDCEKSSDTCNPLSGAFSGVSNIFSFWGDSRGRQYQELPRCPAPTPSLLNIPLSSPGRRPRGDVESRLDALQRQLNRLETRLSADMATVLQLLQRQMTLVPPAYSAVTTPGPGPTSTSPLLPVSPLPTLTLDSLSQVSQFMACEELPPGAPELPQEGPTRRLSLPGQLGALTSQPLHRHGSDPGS

[25] = Genotoxicity in Salmonella typhimurium TA100 incubated for 48 to 72 hrs in presence of S9 fraction by AMES test; type: toxicity, subcellular; details: salmonella enterica subsp. enterica serovar typhimurium, time 48-72 hrs
[26] = Genotoxicity in Salmonella typhimurium TA1537 incubated for 48 to 72 hrs in presence of S9 fraction by AMES test; type: toxicity, subcellular; details: salmonella enterica subsp. enterica serovar typhimurium, time 48-72 hrs
[27] = Inhibition of pSLP76 in human PBMC cells incubated for 4 hrs by HTRF method; type: cell-based
in vivo = details: Sprague-Dawley, rat, plasma, iv, 1 mg/kg
Description: Clearance in Sprague-Dawley rat plasma at 1 mg/kg, iv

Q: With `COc1cc(Nc2ccc3c(n2)CN(C)C32CCN(C3COC3)CC2)c(C(N)=O)nc1-c1cccc2c1ncn2C` as the molecule, how does the IC50 [1] read?
A: < 0.51 nM

Q: And the IC50 [2]?
A: 325 nM

Q: What about the EC50 [3] of the same molecule?
A: 43.3 nM

Q: What about the half-life [4] of the same molecule?
A: 3.42 h

Q: What about the AUC/dose [5] of the same molecule?
A: 408.8 ng·h/mL

Q: What about the half-life [6] of the same molecule?
A: 1.45 h

Q: And the IC50 [7]?
A: 1740 nM

Q: And the IC50 [8]?
A: 521 nM

Q: What about the IC50 [9] of the same molecule?
A: 500 nM

Q: And the IC50 [10]?
A: > 10000 nM

Q: What about the IC50 [11] of the same molecule?
A: > 10000 nM

Q: And the IC50 [12]?
A: > 10000 nM

Q: And the IC50 [13]?
A: > 10000 nM

Q: What about the Activity [14] of the same molecule?
A: Non-toxic

Q: And the inhibition in vivo at 3 mg/kg (MC-38 [15])?
A: 34.9%

Q: What about the Activity (MC-38 [16]) of the same molecule?
A: 0.78

Q: What about the Activity (MC-38 [17]) of the same molecule?
A: 0.57

Q: And the Activity [18]?
A: Non-toxic

Q: And the Activity [19]?
A: Non-toxic

Q: And the Activity [20]?
A: Non-toxic

Q: And the solubility at 24 h [21]?
A: 134 µM (≈ 74.3 µg/mL)

Q: What about the fraction unbound at 4 h, 2 µM [22] of the same molecule?
A: 0.309

Q: What about the fraction unbound at 4 h, 2 µM [23] of the same molecule?
A: 0.153

Q: And the IC50 (Cytochrome P450 2D6)?
A: > 50000 nM

Q: And the IC50 [24]?
A: > 10000 nM

Q: And the Activity [25]?
A: Non-toxic

Q: And the Activity [26]?
A: Non-toxic

Q: What about the IC50 [27] of the same molecule?
A: 19.9 nM

Q: What about the clearance (in vivo) of the same molecule?
A: 9.67 mL/min/kg
